Results: patent publication US20260297542A1, “HERBICIDE RESISTANT PLANTS” (SYNGENTA CROP PROTECTION AG, priority 2023, published 2026)
Numbering of substitutions follows the chain as printed.

Assays:
Test in all cases: E. coli hemG growth inhibition by herbicide, AtPPO1 variant
Format in all cases: cell-based
Conditions in all cases: read-out: percentage growth inhibition
AtPPO1 P413G = target: T1, AtPPO1 P413G (Arabidopsis thaliana, UniProt P55826, P413G)
T1 construct: expressed in transfected cells; host or cells: E. coli BL21(DE3) hemG (pET24a, T7 promoter)
T1 sequence (P55826 35-537 P413G): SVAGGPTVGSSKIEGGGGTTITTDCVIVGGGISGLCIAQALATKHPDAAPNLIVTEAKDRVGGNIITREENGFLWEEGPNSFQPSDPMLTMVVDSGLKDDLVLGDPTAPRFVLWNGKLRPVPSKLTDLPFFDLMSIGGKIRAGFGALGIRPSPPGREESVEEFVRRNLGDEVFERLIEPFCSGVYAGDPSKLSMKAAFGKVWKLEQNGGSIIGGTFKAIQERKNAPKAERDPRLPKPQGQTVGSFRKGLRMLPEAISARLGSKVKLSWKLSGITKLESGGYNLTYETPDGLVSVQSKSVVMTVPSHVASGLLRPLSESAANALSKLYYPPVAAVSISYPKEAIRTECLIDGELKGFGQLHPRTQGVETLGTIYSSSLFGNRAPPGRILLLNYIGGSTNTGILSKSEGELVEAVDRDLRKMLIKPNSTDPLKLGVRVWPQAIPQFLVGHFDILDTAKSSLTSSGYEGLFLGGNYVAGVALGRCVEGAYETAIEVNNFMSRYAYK
How it was run: (§1)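 AtPPO1 variants from a site-saturation library, codon-optimised and T7-driven in pET24a, were expressed in E. coli BL21(DE3) lacking hemG (hemG replaced by CmR). Growth in Terrific broth with 0.1 mM IPTG plus 6.25 ppm herbicide 0 or E, 0.78 ppm herbicide B, or DMSO was read as OD600 after 24 h at 37° C; inhibition was calculated against the DMSO culture.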

AtPPO1 R284G = target: T2, AtPPO1 R284G (Arabidopsis thaliana, UniProt P55826, R284G)
T2 construct: expressed in transfected cells; host or cells: E. coli BL21(DE3) hemG (pET24a, T7 promoter)
T2 sequence (P55826 35-537 R284G): T1 sequence (P55826 35-537 P413G) with R250G, G379P
How it was run: as §1

AtPPO1 V206G = target: T3, AtPPO1 V206G (Arabidopsis thaliana, UniProt P55826, V206G)
T3 construct: expressed in transfected cells; host or cells: E. coli BL21(DE3) hemG (hemG replaced by CmR), pET24a plasmid
T3 sequence (P55826 35-537 V206G): T1 sequence (P55826 35-537 P413G) with V172G, G379P
How it was run: as §1

AtPPO1 V511L = target: T4, AtPPO1 V511L (Arabidopsis thaliana, UniProt P55826, V511L)
T4 construct: expressed in transfected cells; host or cells: E. coli BL21(DE3) hemG, pET24a plasmid
T4 sequence (P55826 35-537 V511L): T1 sequence (P55826 35-537 P413G) with G379P, V477L
How it was run: as §1

SMILES	inhibition at 6.25 ppm (AtPPO1 P413G) [%]	inhibition at 6.25 ppm (AtPPO1 R284G) [%]	inhibition at 6.25 ppm (AtPPO1 V206G) [%]	inhibition at 6.25 ppm (AtPPO1 V511L) [%]	inhibition at 0.78 ppm (AtPPO1 P413G) [%]	inhibition at 0.78 ppm (AtPPO1 R284G) [%]	inhibition at 0.78 ppm (AtPPO1 V206G) [%]	inhibition at 0.78 ppm (AtPPO1 V511L) [%]
CC(C)N(C)S(=O)(=O)NC(=O)c1cc(-n2c(=O)cc(C(F)(F)F)n(C)c2=O)c(F)cc1Cl [Herbicide E, saflufenacil]	59	60	58	46	–	–	–	–
C#CCN1C(=O)C(F)(F)Oc2cc(F)c(-n3c(=O)n(C)c(=S)n(C)c3=O)cc21 [Herbicide B, trifludimoxazin]	–	–	–	–	16	35	32	18
CCOC(=O)[C@]1(C)CC(c2cc(-n3c(=O)n(C)c(=S)n(C)c3=O)c(F)cc2Cl)=NO1 [Herbicide D, ethyl (5S)-3-[2-chloro-5-(3,5-dimethyl-2,6-dioxo-4-thioxo-1,3,5-triazinan-1-yl)-4-fluoro-phenyl]-5-methyl-4H-isoxazole-5-carboxylate]	32	37	19	18	–	–	–	–
